The values below come from the METLIN SMRT retention time set (Domingo-Almenara et al. 2019).

This data set is described as follows: gradient 5% acetonitrile 3 min, to 50% in 2 min, to 85% in 15 min, held 3 min, 100 µL/min. The note with it: column: Zorbax Extend-C18 2.1 x 50 mm; eluents: water / acetonitrile, 0.1% formic acid. In outline:
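Values are retention times taken from adduct peaks that software picked and an analyst inspected. The pure standards were run as mixtures of ~100 molecules on HPLC linked to a quadrupole time-of-flight mass spectrometer, in positive and negative ionization mode. A Zorbax Extend-C18 column (2.1 × 50 mm, 1.8 μm) was used at 100 μL/min with water and acetonitrile, each including 0.1% formic acid.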
For the compound `Cc1cc(C)c(S(=O)(=O)N2CCc3c(c(-c4nnc(-c5ccccc5F)o4)nn3C)C2)c(C)c1`, the RP-LC retention time was 1070 s. Then `COc1cc(CNC(=O)C2=Cc3ccccc3OC2)cc(OC)c1OC`, with 835 s. Then `O=C(C1=CN(c2ccc(F)c(F)c2)c2ccccc2S1(=O)=O)N1CCOCC1`, with 751 s. Then `CCc1cc(=O)n(CC(=O)Nc2cccc(Cl)c2)c(N2CCOCC2)n1`, with 788 s.

Consider `CCc1ccc(-c2csc(NC(=O)c3cccnc3)n2)cc1`, for which the RP-LC retention time is 924 s.

`O=C(NCc1ccc(F)cc1Cl)c1sc2ncccc2c1-n1cccc1` gave an RP-LC retention time of 1060 s.

Take `CN(CCNC(=O)c1ccc(-c2ccnc(N3CCCC3)n2)cc1)C1CCCCC1`: the RP-LC retention time turned out to be 611 s.

On to `O=c1c2oc3ccccc3c2ncn1Cc1nc(-c2ccc3c(c2)OCO3)no1`, for which the RP-LC retention time amounted to 909 s.

In turn, `O=C(NCCN1CCOCC1)c1nc2ccccn2c1-c1ccc(Cl)cc1` returned an RP-LC retention time of 647 s. Take `Cc1ccc(C)c(NC(=O)N2CCCC2c2nncn2-c2ccccc2)c1` (centres undefined): the RP-LC retention time amounted to 729 s. As for `COc1cc(OC)c(NC(=O)C2=C(C)C(=O)OC23CCN(C(C)C)CC3)cc1Cl`, the figure is 654 s; as for `Cc1ccc(C)c(CN2CCC(F)(c3nc(-c4cnccn4)no3)CC2)c1`, 650 s; as for `O=C(Cc1ccc(F)cc1)NC1CCN(c2nnc3ccccn23)CC1`, 629 s.

In the case of `Cn1cc(CN2CCC(C(=O)NC3CCCCCC3)CC2)c2cc(Cl)ccc21`, the RP-LC retention time was 751 s.

In turn, `Cc1cccc(C(C)c2cnc[nH]2)c1C` (centres undefined) returned an RP-LC retention time of 689 s. On to `COC(=O)C1C(=O)C2=C(CC1C)NC(C)=C(C(=O)OCCOC(C)C)C2c1cccc(F)c1` (centres undefined), for which the RP-LC retention time stood at 961 s.

The compound `COc1ccc(C)cc1NC(=O)Cn1nc(N2CCSCC2)c2ccccc2c1=O` registered an RP-LC retention time of 1040 s. Then `CCC(=O)N1CCc2cc(N3CC(C(=O)NC4CCCC4)CC3=O)ccc21` (centres undefined), with 686 s; and `Cc1c(Cl)cccc1NC(=O)N1CCc2nc[nH]c2C1`, with 592 s. Then `CCc1nc(-c2csc(S(=O)(=O)N3CCCC(C(=O)NCc4ccc(Cl)cc4)C3)c2)no1` (centres undefined), with 1030 s; and `COCc1nc2ccccc2n1CC(=O)N(c1ccccc1)C(C)C`, with 707 s. Then `Cc1cc(Cl)ccc1S(=O)(=O)NCC1CN(C)CC12CCCCC2` (centres undefined), with 713 s; and `O=C(NCCC1CCN(S(=O)(=O)c2ccccc2)CC1)Nc1ccccc1`, with 856 s; and `O=C(NCc1ccc2c(c1)OCO2)C1CCCN(c2ncnc3c2nc2n3CCCCC2)C1` (centres undefined), with 750 s. On to `CC(C)c1cc(C2NNC(=O)N2c2ccc3c(ccn3C)c2)c(O)cc1O` (centres undefined), for which the RP-LC retention time was 796 s. As for `COc1ccc(NC(=O)Cn2nc3cc(C)nc(Nc4cc(C)cc(C)c4)n3c2=O)cc1`, the figure is 869 s; as for `O=C(CNC(=O)c1cccc(Br)c1)NCc1cscn1`, 652 s. Then `Cc1ccc(-c2nnc(Cc3nc(-c4ccc(Br)cc4)no3)o2)cc1C`, with 1230 s. For `Fc1ccc(F)c(Cn2cccc2-c2nc(-c3ccncc3)no2)c1`, the RP-LC retention time is 1130 s.

Take `Cc1nn(CC(=O)NCCCN(C)Cc2ccccc2)c(=O)c2noc(C)c12`: the RP-LC retention time was 588 s. As for `CCc1ccc(C2=C(C)C(N3CCC(C(=O)NCCc4ccco4)CC3)=NS2(=O)=O)cc1`, the figure is 882 s; as for `CN1C(=O)c2cccn2CC1C(=O)NC1CCCC1` (centres undefined), 634 s. Then `Cc1ccc(C)c(NC(=O)Nc2ccc3nnc(C)n3c2)c1`, with 695 s; and `CSc1cccc(NC(=O)N(C)Cc2nc3cc(C(=O)N(C)C)ccc3n2C)c1`, with 626 s. Then `Cc1ccc(Cl)cc1NC(=O)CSc1nnc2c3cc(-c4ccc(F)cc4)nn3ccn12`, with 618 s. As for `O=S(=O)(c1ccc(F)cc1)N1CCC2(CC1)NCCN=C2NCc1cccc(F)c1`, the RP-LC retention time amounted to 691 s.

`CN(C)c1nn(CC(=O)NCc2ccc3c(c2)OCO3)c(=O)c2ccccc12` showed an RP-LC retention time of 765 s.

Compound `CCc1nc2cc(-c3noc(CNC(=O)Cc4ccccc4)n3)ccc2o1` yielded an RP-LC retention time of 819 s.

`Cc1nc(-c2cc(S(=O)(=O)NCC(=O)NC3CCCC3)c(C)s2)no1` displayed an RP-LC retention time of 774 s. `Cc1c2c(nn1-c1ccc(SCc3cccc(F)c3)nn1)CCC2` displayed an RP-LC retention time of 1280 s. Then `O=C(Cc1c(F)cccc1Cl)Nc1cnn(-c2ncc(N3CCCC3)cn2)c1`, with 771 s; and `Cc1cc(NC(=O)C(=O)NCC2(c3ccc(F)cc3)CCOCC2)no1`, with 736 s; and `Cc1ccc(CNC(=O)c2ccc3c(c2)ncn3CCN2CCCC2)cc1`, with 585 s. As for `CC1=C(c2ccc(C)c(C)c2)S(=O)(=O)N=C1N1CCCN(C(=O)NC2CCCC2)CC1`, the figure is 876 s; as for `O=C(CCCn1c(=O)c2cccn2c2ccc(F)cc21)NCCCN1CCCCCC1`, 645 s. As for `CCCN1C(=O)COc2ccc(-c3noc(CCc4ccccc4)n3)cc21`, the figure is 1150 s; as for `Cc1cc2n(n1)CCC(=O)N2CCCC(=O)NC1CCCCC1`, 661 s.

Take `CC1(C)C(=O)N2c3ccccc3C3(CC(N4C(=O)c5ccccc5C4=O)C(=O)O3)C2N1C(=O)OCc1ccccc1` (centres undefined): the RP-LC retention time stood at 1170 s.

With `CCOc1ccccc1NS(=O)(=O)c1ccccc1-c1nc(-c2cccc(F)c2)no1`, the RP-LC retention time was determined as 1280 s. As to `CCC(Oc1ccc(-c2cnc3ccccc3n2)cc1)C(=O)N1CCN(c2ncccn2)CC1` (centres undefined), the RP-LC retention time is 942 s. As for `O=C(CSc1ccc(NC(=O)c2cccs2)nn1)Nc1ccccc1C(F)(F)F`, the figure is 842 s; as for `CCCCNC(=O)c1nc(Nc2ccccc2)c2ccccc2n1`, 801 s; as for `O=C(NCc1ccccn1)c1cn(-c2cc(N3CCOCC3)ncn2)cn1`, 581 s. As for `COCCOCC(=O)N1CCC(c2noc(C3CC3)n2)C1` (centres undefined), the figure is 619 s; as for `COc1cccc(CN2C[C@@H]3C(=O)N(Cc4ccc5c(c4)OCO5)C(=O)[C@@H]3C2)c1`, 724 s. Then `CCCN1C(=O)c2cccnc2Sc2cc(C(=O)N3CCOCC3)ccc21`, with 682 s; and `CNC(=O)C1CN(C(=O)Cc2cccc(Cl)c2)CC12CCCC2` (centres undefined), with 740 s. In turn, `Cc1cc(C)n(CCC(=O)N2CC(Oc3ccc(-c4nc(-c5ccccc5)no4)cc3)C2)n1` came in with an RP-LC retention time of 1020 s. As for `C=CCN1C(=O)COc2ccc(-c3csc(NC(=O)c4cccc(Cl)c4)n3)cc21`, the figure is 1070 s; as for `Cc1ncoc1C(=O)N1CC(c2noc(C3CCCN3CC3CC3)n2)C1` (centres undefined), 559 s.

In turn, `COc1ccc(NC(=O)Cn2cccc(-c3nc(-c4ccc(OC)c(OC)c4)no3)c2=O)c(OC)c1` returned an RP-LC retention time of 788 s. Then `O=C(NC1CCCCCC1)c1cccc(-c2nccnc2N2CCCC2)c1`, with 1000 s; and `Cc1nn(-c2ccc(F)cc2)c2nc(N3CCCC(C(=O)NCCc4ccco4)C3)sc12` (centres undefined), with 1080 s. In turn, `CCCN(C)C(=O)c1cn2ccnc(-c3ccc(C)cc3)c2n1` returned an RP-LC retention time of 956 s. Then `CCOc1ccc(-n2c(CN3CCN(C(=O)NCC(C)C)CC3)nc3cccnc32)cc1`, with 654 s. Compound `COc1ccc2c(c1)c(CN1C[C@@H](CO)[C@H](c3nc(C)no3)C1)cn2C` showed an RP-LC retention time of 555 s.

On to `CCc1nncn1C1CCN(S(=O)(=O)c2cc(F)ccc2OC)CC1`, for which the RP-LC retention time stood at 696 s. Then `COc1cccc2cc(-c3nnc(NC(=O)c4ccc([N+](=O)[O-])s4)o3)oc12`, with 965 s; and `CCOC(=O)N1CCN(c2nc(F)c3c(c2F)S(=O)(=O)CCN3Cc2cccnc2)CC1`, with 636 s; and `CCOc1ccc(CNC(=O)C2CCN(S(=O)(=O)c3cn(C(C)C)cn3)CC2)cc1OC`, with 704 s. As for `O=C(Nc1ccc(Cl)cc1)C1CCc2sc(C(=O)N3CCOCC3)cc2C1` (centres undefined), the figure is 759 s; as for `O=C(Nc1ccc2c(c1)CCN(Cc1ncn[nH]1)C2)c1ccccc1-c1ccc(C(F)(F)F)cc1`, 755 s; as for `CN(CC(=O)N1CCN(C2CCCCC2)CC1)S(=O)(=O)c1ccc2c(c1)CCCC(=O)N2`, 602 s. Then `O=C(CN1CCN(C(=O)Nc2ccc(Cl)cc2)CC1=O)NCc1ccco1`, with 685 s; and `CCN1C(=O)CCc2cc(NS(=O)(=O)c3cccc(Br)c3)ccc21`, with 833 s. `CCC1CCCCN1C(=O)CN1CN(c2ccc(C)cc2)c2ncccc2S1(=O)=O` (centres undefined) yielded an RP-LC retention time of 1030 s. Then `C=CCn1c(=O)c2ccccc2n(Cc2nc(-c3ccc4c(c3)OCO4)no2)c1=O`, with 998 s. On to `CN(C)c1cccc(-c2nn3c(-c4ccc5ccccc5n4)nnc3s2)c1`, for which the RP-LC retention time turned out to be 1070 s. As for `CCOC(=O)C1CCN(C(=O)c2nnc(-c3ccc(S(=O)(=O)N4CCOCC4)cc3)o2)CC1`, the figure is 826 s.
